Data from US10294260B2, “Tetracyclic anthraquinone derivatives” (TIANJIN HEMAY ONCOLOGY PHARMACEUTICAL CO., LTD., priority 2012, dated 2019).

Legend:
[1] = tested on: mice of ICR strain; experiment: Assay on MTD (maximum tolerated dose) in vivo of mice; conditions: for Number of Dead Animals ♂/♀ / Number of animals that died immediately after the injection (a) ♂/♀: male/female; for Number of animals that died immediately after the injection (a) ♂/♀: not counted in mortality rate
Method: Assay on MTD (Maximum Tolerated Dose) In Vivo of Mice
Assay on Maximum Tolerated Dose of Compound
Assay animals: mice of ICR strain with a weight of 18-22 g, purchased from Beijing Vital River Laboratories Limited, License SCXK (jing) 2007-0001.
Administration Regimen: each experimental animal was administered with corresponding dosage of tested substance once by injection of caudal vain every three days. Each dosage was initially designed as 5 times of administration. The specific time of administration depended on the conditions of the animals. It should be carefully observed the behavior conditions of the animals within 2 hours after administration. The animal's behavior was observed every 4 hours in the day of administration. The survival conditions and weight of animals were recorded every day and observed for whether abnormality occurred on the body surface thereof. The experimental animals were sacrificed on 14 day after administration and dissected for observation.
I group: (20 mg/kg) group;
II group: (25 mg/kg) group;
III group: (30 mg/kg) group;
IV group: solvent control group;
There were four groups in total. Each group consisted of five male mice and five female mice.
I group: (40 mg/kg) group;
II group: (45 mg/kg) group;
III group: (50 mg/kg) group;
V group: (60 mg/kg) group;
There were five groups in total. Each group consisted of six male mice and six female mice.

[2] = Storage stability detected by HPLC; type: physicochemical; conditions: sealed and stored for 9 months under refrigeration conditions

Row | SMILES | Number of Dead Animals ♂/♀ ([1]; 20 mg/kg, 4 administrations) | Mortality Rate (%) ([1]; 20 mg/kg, 4 administrations, total dosage 80 mg/kg) | Number of Dead Animals ♂/♀ ([1]; 25 mg/kg, 4 administrations) | Mortality Rate (%) ([1]; 25 mg/kg, 4 administrations, total dosage 100 mg/kg) | Number of Dead Animals ♂/♀ ([1]; 30 mg/kg, 3 administrations) | Mortality Rate (%) ([1]; 30 mg/kg, 3 administrations, total dosage 90 mg/kg) | Number of Dead Animals ♂/♀ ([1]; 30 mg/kg, 5 administrations) | Mortality Rate (%) ([1]; 30 mg/kg, 5 administrations, total dosage 150 mg/kg) | Number of Dead Animals ♂/♀ ([1]; 40 mg/kg, 5 administrations) | Mortality Rate (%) ([1]; 40 mg/kg, 5 administrations, total dosage 200 mg/kg) | Number of Dead Animals ♂/♀ ([1]; 50 mg/kg, 5 administrations) | Mortality Rate (%) ([1]; 50 mg/kg, 5 administrations, total dosage 250 mg/kg) | Number of Dead Animals ♂/♀ ([1]; 60 mg/kg, 5 administrations) | Mortality Rate (%) ([1]; 60 mg/kg, 5 administrations, total dosage 300 mg/kg) | stability (degraded product by HPLC) [2] | Number of Dead Animals ♂/♀ ([1]; 45 mg/kg, 5 administrations) | Number of animals that died immediately after the injection (a) ♂/♀ ([1]; 45 mg/kg, 5 administrations) | Number of animals that died immediately after the injection (a) ♂/♀ ([1]; 50 mg/kg, 5 administrations) | Number of Dead Animals ♂/♀ ([1]; 55 mg/kg, 5 administrations) | Number of animals that died immediately after the injection (a) ♂/♀ ([1]; 55 mg/kg, 5 administrations)
1 | COc1cccc2c1C(=O)c1c(O)c3c(c(O)c1C2=O)C[C@@](O)(C(=O)CO)C[C@@H]3O[C@H]1C[C@H](n2cccc2)[C@H](O)[C@H](C)O1 [3′-Pyrrolyldoxorubicin] | 5/5 | 100% | 5/5 | 100% | 5/5 | 100% | – | – | – | – | – | – | – | – | – | – | – | – | – | –
2 | COc1cccc2c1C(=O)c1c(O)c3c(c(O)c1C2=O)CC(O)(C(=O)COC(=O)CCC(=O)O)CC3OC1CC(n2cccc2)C(O)C(C)O1 (centres unmarked) [Compound A, 3′-pyrrolyldoxorubicin-14-oxo-succinic acid monoester] | – | – | – | – | – | – | 0/1 | 10% | 3/2 | 50% | 5/5 | 100% | 5/5 | 100% | – | – | – | – | – | –
3 | COc1cccc2c1C(=O)c1c(O)c3c(c(O)c1C2=O)CC(O)(C(=O)COC(=O)CCC(=O)NCCN1CCOCC1)CC3O[C@H]1C[C@H](n2cccc2)[C@H](O)[C@H](C)O1.O=P(O)(O)O (stereo partly drawn) [Example 96, 10-((3′-(Pyrrol-1-yl)-2′,3′,6′-Trideoxy-Alpha-L-Lyxo-Hexylpyranyl)Oxy)-7,8,9,10-Tetrahydro-6,8,11-Trihydroxy-13-Oxo-14-(4-((2-(Morpholin-1-yl)Ethyl)Amino)-4-Oxo-Butyrato)-1-Methoxy-5,12-Naphthalenedione Phosphate] | – | – | – | – | – | – | – | – | 0/1 | – | 0/0 | – | 3/4 | – | No obvious degraded product was observed | 0/0 | 1/2 | 1/1 | 5/4 | 5/3
